{"source": "patent US11407750B2", "about": "“Derivatives of an FGFR inhibitor” (Incyte Corporation, priority 2019, dated 2022)", "key": {"FGFR1": {"target": "FGFR1 (Homo sapiens (Human), UniProt P11362)", "sequence (P11362 22-822)": "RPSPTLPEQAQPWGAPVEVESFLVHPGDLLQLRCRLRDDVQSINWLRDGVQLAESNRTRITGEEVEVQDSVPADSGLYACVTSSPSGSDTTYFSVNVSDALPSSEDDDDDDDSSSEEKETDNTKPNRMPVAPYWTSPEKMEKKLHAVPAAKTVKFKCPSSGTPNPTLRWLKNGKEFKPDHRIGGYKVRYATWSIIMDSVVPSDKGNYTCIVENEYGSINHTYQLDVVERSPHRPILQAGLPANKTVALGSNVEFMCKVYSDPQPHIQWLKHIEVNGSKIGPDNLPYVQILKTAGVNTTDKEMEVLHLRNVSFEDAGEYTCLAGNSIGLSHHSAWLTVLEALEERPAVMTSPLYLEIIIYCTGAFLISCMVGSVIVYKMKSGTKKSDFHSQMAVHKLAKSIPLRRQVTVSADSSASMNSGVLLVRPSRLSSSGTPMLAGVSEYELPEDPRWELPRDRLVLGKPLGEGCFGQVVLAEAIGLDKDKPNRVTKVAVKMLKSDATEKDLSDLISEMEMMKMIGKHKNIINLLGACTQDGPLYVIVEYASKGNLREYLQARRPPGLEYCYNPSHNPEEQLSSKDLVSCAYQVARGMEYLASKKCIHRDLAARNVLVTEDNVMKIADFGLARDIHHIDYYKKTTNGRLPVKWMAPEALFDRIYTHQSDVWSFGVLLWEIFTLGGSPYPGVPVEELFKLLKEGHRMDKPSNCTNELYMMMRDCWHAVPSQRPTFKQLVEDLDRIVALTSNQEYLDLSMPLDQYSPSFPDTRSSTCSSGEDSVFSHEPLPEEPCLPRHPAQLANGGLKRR", "assay": "FGFR Enzymatic Assay (FRET peptide phosphorylation), FGFR1", "format": "biochemical", "experimental": "(§1) The inhibitor potency of the exemplified compounds was determined in an enzyme discontinuous assay that measures peptide phosphorylation using FRET measurements to detect product formation. Inhibitors were serially diluted in DMSO and a volume of 0.2 μL was transferred to the wells of a 384-well plate. For the isoforms of FGFR (−1, −2, −3 wild-type and mutant isoforms, −4) including phosphorylated and un-phosphorylated proteins, a 5 μL/well volume of enzyme diluted in assay buffer (50 mM HEPES, 10 mM MgCl2, 1 mM EGTA, 0.01% Tween-20, 5 mM DTT, pH 7.5) was added to the plate and pre-incubated with inhibitor for 5 to 15 minutes at ambient temperature. Appropriate controls (enzyme blank and enzyme with no inhibitor) were included on the plate. The reaction was initiated by the addition of a 5 μL/well volume containing both biotinylated […] […] The ATP Km values were pre-determined for each FGFR isoform in a separate series of experiments. […] The plate was allowed to equilibrate for ˜10 minutes at ambient temperature before scanning on a PheraStar plate reader (BMG Labtech) instrument.\n(§2) Either GraphPad prism or XLfit was used to analyze the data. The IC50 values were derived by fitting the data to a four parameter logistic equation producing a sigmoidal dose-response curve with a variable Hill coefficient. Prism equation: Y=Bottom+(Top−Bottom)/(1+10^((Log IC50−X)*Hill slope)); […]"}, "FGFR3": {"target": "FGFR3 (Homo sapiens (Human), UniProt P22607)", "sequence (P22607 23-806)": "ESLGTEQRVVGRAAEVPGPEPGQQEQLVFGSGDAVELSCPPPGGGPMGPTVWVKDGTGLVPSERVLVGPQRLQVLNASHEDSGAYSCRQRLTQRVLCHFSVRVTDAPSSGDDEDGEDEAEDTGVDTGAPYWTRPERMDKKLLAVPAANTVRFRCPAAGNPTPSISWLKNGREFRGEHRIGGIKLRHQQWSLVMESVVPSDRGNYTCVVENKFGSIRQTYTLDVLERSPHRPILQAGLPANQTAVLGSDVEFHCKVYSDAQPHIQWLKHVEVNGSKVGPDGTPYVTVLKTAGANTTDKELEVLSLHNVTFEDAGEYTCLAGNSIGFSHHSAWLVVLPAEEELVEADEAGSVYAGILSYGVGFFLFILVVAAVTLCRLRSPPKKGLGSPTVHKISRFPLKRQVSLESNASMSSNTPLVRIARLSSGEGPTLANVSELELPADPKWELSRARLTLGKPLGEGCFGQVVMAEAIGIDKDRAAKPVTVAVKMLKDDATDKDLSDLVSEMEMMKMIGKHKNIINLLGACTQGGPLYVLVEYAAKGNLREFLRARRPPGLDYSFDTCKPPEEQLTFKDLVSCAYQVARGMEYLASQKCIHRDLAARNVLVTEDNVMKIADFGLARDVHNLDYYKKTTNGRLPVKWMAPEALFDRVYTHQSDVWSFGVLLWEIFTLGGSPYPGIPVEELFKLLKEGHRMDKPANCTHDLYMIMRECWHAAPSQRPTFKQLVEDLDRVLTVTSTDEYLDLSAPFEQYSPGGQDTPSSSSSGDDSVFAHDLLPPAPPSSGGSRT", "assay": "FGFR Enzymatic Assay (FRET peptide phosphorylation), FGFR3", "format": "biochemical", "experimental": "as §1, §2"}, "P-gp": {"target": "P-gp (Homo sapiens (Human), UniProt P08183)", "sequence (P08183 whole entry)": "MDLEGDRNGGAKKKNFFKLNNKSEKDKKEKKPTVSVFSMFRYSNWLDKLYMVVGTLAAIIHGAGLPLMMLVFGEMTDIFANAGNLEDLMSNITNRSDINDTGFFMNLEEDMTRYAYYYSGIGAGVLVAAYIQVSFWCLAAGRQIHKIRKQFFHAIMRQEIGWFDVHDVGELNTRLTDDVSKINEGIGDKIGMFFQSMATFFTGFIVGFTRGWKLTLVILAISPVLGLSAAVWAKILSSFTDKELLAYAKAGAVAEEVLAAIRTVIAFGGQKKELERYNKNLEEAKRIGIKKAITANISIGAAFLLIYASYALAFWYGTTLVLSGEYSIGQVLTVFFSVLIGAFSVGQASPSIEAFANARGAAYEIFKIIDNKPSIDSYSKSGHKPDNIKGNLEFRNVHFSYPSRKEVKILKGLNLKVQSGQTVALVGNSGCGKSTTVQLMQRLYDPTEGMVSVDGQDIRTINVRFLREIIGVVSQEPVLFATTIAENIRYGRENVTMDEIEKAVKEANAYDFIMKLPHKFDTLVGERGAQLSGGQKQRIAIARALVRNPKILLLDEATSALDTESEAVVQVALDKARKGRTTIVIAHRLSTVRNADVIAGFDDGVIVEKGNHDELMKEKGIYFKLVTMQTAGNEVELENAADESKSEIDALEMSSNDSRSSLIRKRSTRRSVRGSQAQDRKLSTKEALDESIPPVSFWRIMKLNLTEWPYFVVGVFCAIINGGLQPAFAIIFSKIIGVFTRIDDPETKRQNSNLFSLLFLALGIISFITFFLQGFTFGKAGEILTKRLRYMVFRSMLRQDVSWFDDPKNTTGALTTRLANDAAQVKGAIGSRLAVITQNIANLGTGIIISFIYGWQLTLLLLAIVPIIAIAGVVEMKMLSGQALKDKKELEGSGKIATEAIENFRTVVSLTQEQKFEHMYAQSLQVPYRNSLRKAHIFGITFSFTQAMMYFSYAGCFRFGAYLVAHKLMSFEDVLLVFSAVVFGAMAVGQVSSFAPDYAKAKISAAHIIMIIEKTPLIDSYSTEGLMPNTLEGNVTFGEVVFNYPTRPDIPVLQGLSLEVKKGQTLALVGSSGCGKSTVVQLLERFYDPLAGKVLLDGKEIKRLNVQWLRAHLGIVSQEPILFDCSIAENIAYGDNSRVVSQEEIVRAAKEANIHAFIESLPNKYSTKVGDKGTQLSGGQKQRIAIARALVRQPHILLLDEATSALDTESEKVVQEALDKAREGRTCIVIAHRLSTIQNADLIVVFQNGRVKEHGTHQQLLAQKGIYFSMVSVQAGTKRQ", "assay": "Bidirectional transport across Caco-2 monolayers (P-gp mediated transport)", "format": "in vitro ADME", "details": "for Papp A→B at 120 min, 3 μM / Papp B→A at 120 min, 3 μM / efflux ratio at 120 min, 3 μM / Papp A→B at 120 min, 30 μM / Papp B→A at 120 min, 30 μM / efflux ratio at 120 min, 30 μM: human; for efflux ratio at 120 min, 3 μM / efflux ratio at 120 min, 30 μM: read-out: Efflux Ratio (B-A/A-B)", "experimental": "(§3) Caco-2 cells were grown in 96-well transwell plates with a seeding density of 14000 cell/well in DMEM medium. To determine the permeability in the absorptive direction (A-B), the test compound in HBSS was added to the donor compartment (apical side), and 4% BSA in HBSS was added into the receiver compartment (basolateral side). To determine whether a compound is a P-gp substrate, permeability values were measured in both the A-B and B-A directions (bidirectional transport assay) in the absence of 4% BSA. Digoxin and cyclosporine A were included as positive controls for P-gp substrate and inhibitor, respectively, to ensure the functionality of P-gp in the bidirectional transport assay. The test compound at various concentrations was added in the donor compartment (apical side for A-B transport and basolateral side for B-A transport) while HBSS solution was added in the receiver compartment (basolateral side for A-B transport and apical side for B-A transport). For permeability studies in the A-B direction, the donor volume was 0.075 mL, and the receiver volume was 0.25 mL. For permeability studies in the B-A direction, the donor volume was 0.25 mL, and the receiver volume was 0.075 mL. The incubation was carried out at 37° C. for 120 minutes. Transepithelial electrical resistance (TEER) was measured before and after the 120 minutes incubation to ensure the integrity of the cell monolayers. At the end of the incubation period, samples were removed from both the donor and receiver sides and mixed with acetonitrile for protein precipitation. The supernatants were collected after centrifugation for analysis using LC-MS/MS method.\n(§4) Permeability coefficient (Papp) values from Caco-2 studies were determined using the following equation: Papp(cm/s)=(F*VD)/(SA*MD) where the flux rate (F, mass/time) was calculated from the slope of cumulative amounts of compound of interest on the receiver side, SA is the surface area of the cell membrane, VD is the donor volume, and MD is the initial amount of the solution in the donor chamber.\nThe efflux ratio from Caco-2 studies was calculated as the ratio of the Papp measured in the B-A direction divided by the Papp in the A-B direction."}, "[1]": {"target": "tyrosine-phosphorylated Fibroblast Growth Factor Receptor 2 alpha (FGFR2α) in KATO III cells (Homo sapiens, UniProt P21802)", "sequence (P21802 22-821 limits assumed)": "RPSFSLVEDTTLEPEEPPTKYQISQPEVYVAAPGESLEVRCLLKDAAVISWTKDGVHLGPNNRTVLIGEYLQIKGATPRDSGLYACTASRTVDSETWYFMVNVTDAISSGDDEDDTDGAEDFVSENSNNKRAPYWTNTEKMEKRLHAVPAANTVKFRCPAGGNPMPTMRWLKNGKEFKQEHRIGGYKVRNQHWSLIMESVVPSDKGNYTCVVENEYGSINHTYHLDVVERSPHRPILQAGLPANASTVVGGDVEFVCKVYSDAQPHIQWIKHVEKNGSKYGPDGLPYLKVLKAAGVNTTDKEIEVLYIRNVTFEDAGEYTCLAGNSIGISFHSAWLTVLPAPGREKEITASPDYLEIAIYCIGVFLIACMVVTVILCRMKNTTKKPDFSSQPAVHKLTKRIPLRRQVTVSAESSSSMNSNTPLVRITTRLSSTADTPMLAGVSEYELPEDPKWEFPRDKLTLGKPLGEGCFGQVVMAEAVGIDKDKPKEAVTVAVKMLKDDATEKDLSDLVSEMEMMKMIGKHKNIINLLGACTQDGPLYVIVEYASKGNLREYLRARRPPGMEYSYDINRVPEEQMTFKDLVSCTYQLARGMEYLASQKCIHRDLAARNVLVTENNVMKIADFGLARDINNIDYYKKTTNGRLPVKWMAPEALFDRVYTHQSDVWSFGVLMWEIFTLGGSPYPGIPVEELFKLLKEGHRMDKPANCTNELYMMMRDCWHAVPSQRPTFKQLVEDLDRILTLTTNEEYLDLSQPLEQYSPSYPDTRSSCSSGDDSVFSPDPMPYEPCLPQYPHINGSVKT", "assay": "KATOIII Whole Blood pFGFR2α ELISA Assay", "format": "cell-based", "details": "KATO III cells spiked into human whole blood, 4 hours; read-out: FGFR2_WB_ELISA-KATOIII IC50", "experimental": "To measure tyrosine-phosphorylated Fibroblast Growth Factor Receptor 2 alpha (FGFR2a) in KATO III spiked whole blood assay, KATO III cells were purchased from ATCC and maintained in Iscove's medium with 20% FBS (Gibco/Life Technologies). […] 50 uL of the cells were then spiked into a 96-deep well 2 ml polypropylene assay block (Costar) in the presence or absence of a concentration range of test compounds and 300 ul human heparinized whole blood (Biological Specialty Corp, Colmar Pa.). After 4 hours incubation in 37° C., the red cells were lysed using Qiagen EL buffer and the cell lysates were resuspended in lysis buffer (Cell Signaling) containing standard protease inhibitor cocktail (Calbiochem/EMD) and PMSF (Sigma) for 30 minutes ice. […] IC50 determination was performed by fitting the curve of inhibitor percent inhibition versus the log of the inhibitor concentration using the GraphPad Prism 5.0 software."}, "[2]": {"assay": "Permeability in Caco-2 cells (absorptive direction A-B)", "format": "in vitro ADME", "details": "human, Caco-2, 4% BSA in receiver, read-out: CACO2 Pm", "experimental": "as §3, §4"}, "Caco-2 cells": {"test_system": "Caco-2 cells", "assay": "Permeability in Caco-2 cells (absorptive direction A-B)", "format": "in vitro ADME", "details": "4% BSA in receiver", "experimental": "as §3, §4"}, "[3]": {"assay": "Compound 1 human absorption, metabolism, and excretion study (single oral dose of [14C] Compound 1)", "format": "in vivo", "details": "feces", "experimental": "An open label-study was conducted, assessing the mass balance, pharmacokinetics, and metabolite profiles of a single oral dose of [14C] Compound 1:\nBlood/plasma, urine, and feces were collected from participants for 4 to 10 days after administration.\nHuman discharge criteria includes that a minimum of 90% of the administered radioactive dose is recovered; and that less than or equal to 1% of the administered radioactive dose is recovered in excreta (urine and feces combined) in 2 consecutive 24-hour urine and fecal collection samples."}, "FGFR2": {"target": "FGFR2 (Homo sapiens (Human), UniProt P21802)", "sequence (P21802 22-821)": "as the sequence (P21802 22-821 limits assumed) above", "assay": "FGFR Enzymatic Assay (FRET peptide phosphorylation), FGFR2", "format": "biochemical", "experimental": "as §1, §2"}, "[4]": {"details": "Caco-2, with cyclosporine A (CSA) 10 μM, with CSA 10 μM"}}, "note": "Like-named read-outs stand apart in the source and are kept apart here."}
{"smiles": "CCN1C(=O)N(c2c(F)c(O)cc(OC)c2F)Cc2cnc3[nH]c(CN4CCOCC4)cc3c21", "note": "[Compound 2, 3-(2,6-difluoro-3-hydroxy-5-methoxyphenyl)-1-ethyl-8-(morpholinomethyl)-1,3,4,7-tetrahydro-2H-pyrrolo[3′,2′:5,6]pyrido[4,3-d]pyrimidin-2-one]", "values": [{"measurement": "IC50", "setting": "FGFR1", "result": "< 10", "unit": "nM"}, {"measurement": "IC50", "setting": "FGFR3", "result": "< 10", "unit": "nM"}, {"measurement": "substrate for Pgp transport", "setting": "P-gp; comparison of efflux ratios at 30 μM", "result": "more effective substrate for Pgp transport than Compound 1"}, {"measurement": "Papp A→B at 120 min, 3 μM", "setting": "P-gp; [4]", "result": "0.65 ± 0.11", "unit": "×10⁻⁶ cm/s"}, {"measurement": "Papp B→A at 120 min, 3 μM", "setting": "P-gp; [4]", "result": "2.2 ± 0.49", "unit": "×10⁻⁶ cm/s"}, {"measurement": "efflux ratio at 120 min, 3 μM", "setting": "P-gp; [4]", "result": "3.3 ± 1.2"}, {"measurement": "Papp A→B at 120 min, 30 μM", "setting": "P-gp; [4]", "result": "2 ± 0.33", "unit": "×10⁻⁶ cm/s"}, {"measurement": "Papp B→A at 120 min, 30 μM", "setting": "P-gp; [4]", "result": "3.1 ± 1.2", "unit": "×10⁻⁶ cm/s"}, {"measurement": "efflux ratio at 120 min, 30 μM", "setting": "P-gp; [4]", "result": "1.5 ± 0.59"}, {"measurement": "Papp A→B at 120 min, 3 μM", "setting": "P-gp; Caco-2, no inhibitor", "result": "0.43 ± 0.15", "unit": "×10⁻⁶ cm/s"}, {"measurement": "Papp B→A at 120 min, 3 μM", "setting": "P-gp; Caco-2, no inhibitor", "result": "11 ± 8", "unit": "×10⁻⁶ cm/s"}, {"measurement": "efflux ratio at 120 min, 3 μM", "setting": "P-gp; Caco-2, no inhibitor", "result": "25 ± 11"}, {"measurement": "Papp A→B at 120 min, 30 μM", "setting": "P-gp; Caco-2, no inhibitor", "result": "0.41 ± 0.07", "unit": "×10⁻⁶ cm/s"}, {"measurement": "Papp B→A at 120 min, 30 μM", "setting": "P-gp; Caco-2, no inhibitor", "result": "7.7 ± 2.8", "unit": "×10⁻⁶ cm/s"}, {"measurement": "efflux ratio at 120 min, 30 μM", "setting": "P-gp; Caco-2, no inhibitor", "result": 19}, {"measurement": "IC50", "setting": "[1]", "result": "50 to 250", "unit": "nM"}, {"measurement": "Papp A→B at 120 min", "setting": "[2]", "result": 0.5, "unit": "×10⁻⁶ cm/s"}, {"measurement": "CACO2 Pm", "setting": "Caco-2 cells", "result": 0.5, "unit": "×10E−6 cm/s"}, {"measurement": "% of Administered Dose in Feces Samples", "setting": "[3]; 0-24 h", "result": "<0.1", "unit": "%"}, {"measurement": "% of Administered Dose in Feces Samples", "setting": "[3]; 24-48 h", "result": 11.4, "unit": "%"}, {"measurement": "% of Administered Dose in Feces Samples", "setting": "[3]; 48-72 h", "result": 14.5, "unit": "%"}, {"measurement": "% of Administered Dose in Feces Samples", "setting": "[3]; 72-96 h", "result": 14.5, "unit": "%"}, {"measurement": "% of Administered Dose in Feces Samples", "setting": "[3]; 96-120 h", "result": 1.6, "unit": "%"}, {"measurement": "% of Administered Dose in Feces Samples", "setting": "[3]; 120-144 h", "result": 2.9, "unit": "%"}, {"measurement": "% of Administered Dose in Feces Samples, Sum", "setting": "[3]; sum 0-144 h", "result": 44.4, "unit": "%"}, {"measurement": "IC50", "setting": "FGFR2", "result": "< 10", "unit": "nM"}]}
